Assays:
human TLR7 = human TLR7 (Homo sapiens (Human), UniProt Q9NYK1); experiment: TLR7 inhibition reporter assay (HEK-Blue cells, SEAP reporter, gardiquimod stimulation); assay type: cell-based; conditions: HEK-Blue cells overexpressing human TLR7, gardiquimod 7.5 μM
human TLR8 = human TLR8 (Homo sapiens (Human), UniProt Q9NR97); experiment: TLR8 inhibition reporter assay (HEK-Blue cells, SEAP reporter, R848 stimulation); conditions: read-out: TLR8 IC50, HEK-Blue cells overexpressing human TLR8, R848 15.9 μM;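 note: compounds tested from 0.05 nM to 50 µM, 22 h at 37 °C, SEAP measured with HEK-Blue Detection, inhibition relative to agonist plus DMSO versus a known inhibitor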
human TLR8, sequence (Q9NR97 27-1041): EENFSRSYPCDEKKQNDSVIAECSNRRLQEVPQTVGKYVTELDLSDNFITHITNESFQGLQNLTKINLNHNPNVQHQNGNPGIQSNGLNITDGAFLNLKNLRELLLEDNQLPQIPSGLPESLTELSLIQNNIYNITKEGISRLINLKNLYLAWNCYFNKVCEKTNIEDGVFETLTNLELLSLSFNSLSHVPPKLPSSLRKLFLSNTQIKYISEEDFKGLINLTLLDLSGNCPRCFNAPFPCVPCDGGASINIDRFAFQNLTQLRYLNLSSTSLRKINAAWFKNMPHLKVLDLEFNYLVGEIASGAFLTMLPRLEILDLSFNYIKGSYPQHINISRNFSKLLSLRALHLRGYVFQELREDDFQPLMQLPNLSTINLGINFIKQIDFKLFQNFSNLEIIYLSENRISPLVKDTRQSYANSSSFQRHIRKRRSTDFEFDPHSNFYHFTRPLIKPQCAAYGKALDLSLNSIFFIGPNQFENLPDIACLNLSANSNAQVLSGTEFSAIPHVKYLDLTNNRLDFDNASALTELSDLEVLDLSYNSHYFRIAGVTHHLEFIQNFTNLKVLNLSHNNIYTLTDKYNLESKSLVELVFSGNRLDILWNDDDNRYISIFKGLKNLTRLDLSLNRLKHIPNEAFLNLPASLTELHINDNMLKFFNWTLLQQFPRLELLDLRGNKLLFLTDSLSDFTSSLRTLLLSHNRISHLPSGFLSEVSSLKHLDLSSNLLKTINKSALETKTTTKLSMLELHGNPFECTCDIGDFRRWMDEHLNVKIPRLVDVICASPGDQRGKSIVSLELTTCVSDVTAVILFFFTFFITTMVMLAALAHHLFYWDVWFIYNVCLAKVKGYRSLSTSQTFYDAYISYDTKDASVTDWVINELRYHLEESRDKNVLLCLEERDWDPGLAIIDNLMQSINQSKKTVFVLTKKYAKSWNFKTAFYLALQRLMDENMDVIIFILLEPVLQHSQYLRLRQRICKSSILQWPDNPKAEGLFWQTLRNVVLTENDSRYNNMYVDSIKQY

human TLR9 = human TLR9 (Homo sapiens (Human), UniProt Q9NR96); experiment: TLR9 inhibition reporter assay (HEK-Blue cells, SEAP reporter, ODN2006 stimulation); conditions: read-out: TLR9 IC50, HEK-Blue cells overexpressing human TLR9, ODN2006 5 nM;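 note: compounds tested over 0.05 nM to 50 µM, 22 h incubation, inhibition taken as SEAP signal drop from agonist plus DMSO wells toward a known inhibitor control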
human TLR9, sequence (Q9NR96 26-1032): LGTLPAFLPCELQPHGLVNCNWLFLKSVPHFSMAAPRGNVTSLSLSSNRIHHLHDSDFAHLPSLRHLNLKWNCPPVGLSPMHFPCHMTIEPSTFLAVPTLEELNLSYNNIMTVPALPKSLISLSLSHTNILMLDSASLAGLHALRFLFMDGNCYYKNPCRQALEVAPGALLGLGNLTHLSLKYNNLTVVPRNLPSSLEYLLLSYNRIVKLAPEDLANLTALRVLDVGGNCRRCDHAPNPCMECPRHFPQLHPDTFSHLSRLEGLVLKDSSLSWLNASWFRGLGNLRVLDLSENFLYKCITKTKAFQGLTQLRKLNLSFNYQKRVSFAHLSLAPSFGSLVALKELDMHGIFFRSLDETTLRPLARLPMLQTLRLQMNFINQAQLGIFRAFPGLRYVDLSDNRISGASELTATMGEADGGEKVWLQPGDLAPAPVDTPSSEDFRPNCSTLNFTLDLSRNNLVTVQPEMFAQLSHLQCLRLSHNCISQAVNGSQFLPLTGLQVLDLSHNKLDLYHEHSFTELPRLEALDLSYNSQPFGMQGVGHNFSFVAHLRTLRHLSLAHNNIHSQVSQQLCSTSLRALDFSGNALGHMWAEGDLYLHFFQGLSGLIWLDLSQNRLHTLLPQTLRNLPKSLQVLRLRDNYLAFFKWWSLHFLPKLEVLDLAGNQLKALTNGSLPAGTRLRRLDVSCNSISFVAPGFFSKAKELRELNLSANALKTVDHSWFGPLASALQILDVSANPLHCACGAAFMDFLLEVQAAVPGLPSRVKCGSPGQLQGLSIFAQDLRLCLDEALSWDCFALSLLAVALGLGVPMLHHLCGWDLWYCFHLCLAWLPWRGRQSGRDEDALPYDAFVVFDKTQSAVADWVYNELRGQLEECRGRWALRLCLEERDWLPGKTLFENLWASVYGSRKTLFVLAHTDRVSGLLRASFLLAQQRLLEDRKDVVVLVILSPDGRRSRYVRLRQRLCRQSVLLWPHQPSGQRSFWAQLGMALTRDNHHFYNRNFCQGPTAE

human TLR7, sequence (Q9NYK1 27-1049): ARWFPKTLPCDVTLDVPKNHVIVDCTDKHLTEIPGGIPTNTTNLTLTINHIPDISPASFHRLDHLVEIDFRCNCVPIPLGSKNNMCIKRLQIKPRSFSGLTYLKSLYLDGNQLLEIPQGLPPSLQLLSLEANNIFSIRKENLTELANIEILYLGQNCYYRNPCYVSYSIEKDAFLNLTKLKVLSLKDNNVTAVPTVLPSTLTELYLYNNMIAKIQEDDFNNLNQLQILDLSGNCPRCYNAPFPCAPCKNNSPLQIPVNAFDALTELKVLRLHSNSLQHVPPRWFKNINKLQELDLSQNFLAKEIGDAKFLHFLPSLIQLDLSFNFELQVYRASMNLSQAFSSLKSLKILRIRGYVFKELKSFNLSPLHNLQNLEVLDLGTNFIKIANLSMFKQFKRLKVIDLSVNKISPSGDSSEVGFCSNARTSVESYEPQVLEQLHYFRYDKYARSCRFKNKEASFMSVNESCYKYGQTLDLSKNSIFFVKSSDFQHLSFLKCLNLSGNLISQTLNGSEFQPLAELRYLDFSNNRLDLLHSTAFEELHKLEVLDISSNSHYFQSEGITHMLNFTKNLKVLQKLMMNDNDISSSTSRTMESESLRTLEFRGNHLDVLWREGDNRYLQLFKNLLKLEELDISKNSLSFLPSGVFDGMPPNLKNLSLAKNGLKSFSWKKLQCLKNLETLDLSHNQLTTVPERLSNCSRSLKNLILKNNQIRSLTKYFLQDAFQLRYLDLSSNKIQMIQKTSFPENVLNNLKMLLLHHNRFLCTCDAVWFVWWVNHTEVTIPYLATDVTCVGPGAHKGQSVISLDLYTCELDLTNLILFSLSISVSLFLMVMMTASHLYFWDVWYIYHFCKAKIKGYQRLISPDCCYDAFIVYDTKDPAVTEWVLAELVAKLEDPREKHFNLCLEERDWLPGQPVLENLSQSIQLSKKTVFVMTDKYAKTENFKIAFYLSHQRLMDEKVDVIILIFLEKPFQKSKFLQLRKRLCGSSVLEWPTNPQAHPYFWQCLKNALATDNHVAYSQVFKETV

| SMILES | IC50 (human TLR7) [nM] | IC50 (human TLR8) [nM] | IC50 (human TLR9) [nM] |
| --- | --- | --- | --- |
| Cc1cc(-c2[nH]c3ccc(C4CCNCC4)cc3c2C(C)C)c(Br)c(C)n1 [Example 40, 2-(3-bromo-2,6-dimethylpyridin-4-yl)-3-isopropyl-5-(piperidin-4-yl)-1H-indole] | 16.5 | 4.1 | 1480 |
| Cc1cc(-c2[nH]c3ccc(C4CCNCC4)cc3c2C(C)C)c(CO)cn1 [Example 42, (4-(3-isopropyl-5-(piperidin-4-yl)-1H-indol-2-yl)-6-methylpyridin-3-yl)methanol] | 52.7 | 2.5 | 897 |
| Cc1nccc(-c2[nH]c3ccc(C4CCNCC4)cc3c2C(C)C)c1Cl [Example 44, 2-(3-chloro-2-methylpyridin-4-yl)-3-isopropyl-5-(piperidin-4-yl)-1H-indole] | 13.9 | 14.4 | 1640 |
| Cc1cc(-c2[nH]c3ccc(C4CCNCC4)cc3c2C(C)C)c(F)c(C)n1 [Example 51, 2-(3-fluoro-2,6-dimethylpyridin-4-yl)-3-isopropyl-5-(piperidin-4-yl)-1H-indole] | 1 | 2.5 | 775 |
| COc1c(-c2[nH]c3ccc(C4CCNCC4)cc3c2C(C)C)cc[n+]([O-])c1C [Example 57] | 489 | 281 | 1770 |
| CC(C)c1c(-c2ccnc(C(C)(C)O)c2)[nH]c2ccc(C3CCNCC3)cc12 [Example 58, 2-(4-(3-isopropyl-5-(piperidin-4-yl)-1H-indol-2-yl)pyridin-2-yl)propan-2-ol] | 31.2 | 667 | 888 |
| CCc1c(-c2ccncc2)[nH]c2ccc(C3CCNCC3)cc12 [Example 60, 3-ethyl-5-(piperidin-4-yl)-2-(pyridin-4-yl)-1H-indole] | 96.3 | 36.8 | 671 |
| CCc1c(-c2ccnc(OC)c2)[nH]c2ccc(C3CCNCC3)cc12 [Example 61, 3-ethyl-2-(2-methoxypyridin-4-yl)-5-(piperidin-4-yl)-1H-indole] | 207 | 58.8 | 2370 |
| CCc1c(-c2ccnc(Cl)c2)[nH]c2ccc(C3CCNCC3)cc12 [Example 62, 2-(2-chloropyridin-4-yl)-3-ethyl-5-(piperidin-4-yl)-1H-indole] | 22 | 19.4 | 2100 |
| CCc1c(-c2ccnc(C#N)c2)[nH]c2ccc(C3CCNCC3)cc12 [Example 64, 4-(3-ethyl-5-(piperidin-4-yl)-1H-indol-2-yl)picolinonitrile] | 95.6 | 61.8 | 895 |
| CCc1c(-c2ccnc(-n3ccnc3)c2)[nH]c2ccc(C3CCNCC3)cc12 [Example 67, 2-(2-(1H-imidazol-1-yl)pyridin-4-yl)-3-ethyl-5-(piperidin-4-yl)-1H-indole] | 1010 | 9 | 396 |
| CCc1c(-c2ccnc(NC(C)=O)c2)[nH]c2ccc(C3CCNCC3)cc12 [Example 68, N-(4-(3-ethyl-5-(piperidin-4-yl)-1H-indol-2-yl)pyridin-2-yl)acetamide] | 4190 | 1030 | 1030 |
| CCc1c(-c2ccnc(C)c2C)[nH]c2ccc(C3CCNCC3)cc12 [Example 70, 2-(2,3-dimethylpyridin-4-yl)-3-ethyl-5-(piperidin-4-yl)-1H-indole] | 120 | 47.2 | 1110 |
| CCc1c(-c2ccnc(N)c2O)[nH]c2ccc(C3CCNCC3)cc12 [Example 71, 2-amino-4-(3-ethyl-5-(piperidin-4-yl)-1H-indol-2-yl)pyridin-3-ol] | 7200 | 5640 | 2830 |
| Cc1cc(-c2[nH]c3cc(C(F)(F)F)c(C4CCNCC4)cc3c2C(C)C)ccn1 [Example 74, 3-isopropyl-2-(2-methylpyridin-4-yl)-5-(piperidin-4-yl)-6-(trifluoromethyl)-1H-indole] | 13.1 | 437 | 1160 |
| Cc1cc(-c2[nH]c3ccc(C4CCNCC4)c(F)c3c2C(C)C)ccn1 [Example 76, 4-fluoro-3-isopropyl-2-(2-methylpyridin-4-yl)-5-(piperidin-4-yl)-1H-indole] | 1.4 | 2.7 | 440 |
| Cc1cc(-c2[nH]c3cc(F)c(C4CCNCC4)cc3c2C(C)C)cc(C)n1 [Example 78, 2-(2,6-dimethylpyridin-4-yl)-6-fluoro-3-isopropyl-5-(piperidin-4-yl)-1H-indole] | 0.8 | 2.7 | 145 |
| Cc1cc(-c2[nH]c3cc(F)c(C4CCNCC4)cc3c2C(C)C)c(F)cn1 [Example 79, 6-fluoro-2-(5-fluoro-2-methylpyridin-4-yl)-3-isopropyl-5-(piperidin-4-yl)-1H-indole] | 1.5 | 2 | 1350 |

Continued by falling IC50 (human TLR7), values first:

| IC50 (human TLR7) [nM] | IC50 (human TLR8) [nM] | IC50 (human TLR9) [nM] | SMILES |
| --- | --- | --- | --- |
| 2180 | 550 | 1630 | CCc1c(-c2ccnc(-c3noc(N)n3)c2)[nH]c2ccc(C3CCNCC3)cc12 [Example 65, 3-(4-(3-ethyl-5-(piperidin-4-yl)-1H-indol-2-yl)pyridin-2-yl)-1,2,4-oxadiazol-5-amine] |
| 1230 | 159 | 554 | CCc1c(-c2ccnc(-c3nnc[nH]3)c2)[nH]c2ccc(C3CCNCC3)cc12 [Example 66, 2-(2-(4H-1,2,4-triazol-3-yl)pyridin-4-yl)-3-ethyl-5-(piperidin-4-yl)-1H-indole] |
| 614 | 907 | 696 | CCc1c(-c2ccnc(C)c2)[nH]c2c(F)cc(C3CCNCC3)cc12 [Example 81, 3-ethyl-7-fluoro-2-(2-methylpyridin-4-yl)-5-(piperidin-4-yl)-1H-indole] |
| 277 | 181 | 114 | CCc1c(-c2ccnc(N)c2)[nH]c2ccc(C3CCNCC3)cc12 [Example 69, 4-(3-ethyl-5-(piperidin-4-yl)-1H-indol-2-yl) pyridin-2-amine] |
| 9 | 36.2 | 3500 | COc1cc(-c2[nH]c3ccc(C4CCNCC4)cc3c2C(C)C)c(F)cn1 [Example 47, 2-(5-fluoro-2-methoxypyridin-4-yl)-3-isopropyl-5-(piperidin-4-yl)-1H-indole] |
| 4.6 | 23.9 | 804 | Cc1cc(-c2[nH]c3ccc(C4CCNCC4)cc3c2C(C)C)cc(C)[n+]1[O-] [Example 56, 2-(2,6-dimethyl-1-(l1-oxidanyl)-1l4-pyridin-4-yl)-3-isopropyl-5-(piperidin-4-yl)-1H-indole] |
| 3.2 | 1.9 | 12700 | Cc1cc(-c2[nH]c3ccc(C4CCNCC4)cc3c2C(C)C)c(Cl)c(C)n1 [Example 50, 2-(3-chloro-2,6-dimethylpyridin-4-yl)-3-isopropyl-5-(piperidin-4-yl)-1H-indole] |
| 2.9 | 1.2 | 2300 | Cc1nccc(-c2[nH]c3ccc(C4CCNCC4)cc3c2C(C)C)c1F [Example 53, 2-(3-fluoro-2-methylpyridin-4-yl)-3-isopropyl-5-(piperidin-4-yl)-1H-indole] |
| 2.7 | 1.3 | 583 | Cc1cc(-c2[nH]c3cc(F)c(C4CCNCC4)cc3c2C(C)C)c(C)cn1 [Example 80, 2-(2,5-dimethylpyridin-4-yl)-6-fluoro-3-isopropyl-5-(piperidin-4-yl)-1H-indole] |
